Measured values reported in the supplement of paper PMC13380429.

Tests used:
Settings in all cases: 72 h
Vero E6 [1] = assay: cell viability relative to DMSO; higher = less toxic
Calu-3 [2] = assay: as above
HepG2 [3] = assay: as above
U2OS [4] = assay: as above
Vero E6 [5] = assay: relative viability EC50 (midpoint between 100% and the lowest measured viability); higher = less toxic
Calu-3 [6] = assay: as above
HepG2 [7] = assay: as above
U2OS [8] = assay: as above
Vero E6 [9] = assay: drug sensitivity score (DSS) for viability; higher = more toxic; extreme values may be limits of the assay
Calu-3 [10] = assay: as above
HepG2 [11] = assay: as above
U2OS [12] = assay: as above
Caco-2 [13] = assay: cell viability relative to DMSO; higher = less toxic
Caco-2 [14] = assay: drug sensitivity score (DSS) for viability; higher = more toxic; extreme values may be limits of the assay
Caco-2 [15] = assay: relative viability EC50 (midpoint between 100% and the lowest measured viability); higher = less toxic

SMILES | cell viability (Vero E6 [1]; 1 nM) [%] | cell viability (Vero E6 [1]; 10 nM) [%] | cell viability (Vero E6 [1]; 100 nM) [%] | cell viability (Vero E6 [1]; 1000 nM) [%] | cell viability (Vero E6 [1]; 10000 nM) [%] | cell viability (Calu-3 [2]; 1 nM) [%] | cell viability (Calu-3 [2]; 10 nM) [%] | cell viability (Calu-3 [2]; 100 nM) [%] | cell viability (Calu-3 [2]; 1000 nM) [%] | cell viability (Calu-3 [2]; 10000 nM) [%] | cell viability (HepG2 [3]; 1 nM) [%] | cell viability (HepG2 [3]; 10 nM) [%] | cell viability (HepG2 [3]; 100 nM) [%] | cell viability (HepG2 [3]; 1000 nM) [%] | cell viability (HepG2 [3]; 10000 nM) [%] | cell viability (U2OS [4]; 1 nM) [%] | cell viability (U2OS [4]; 10 nM) [%] | cell viability (U2OS [4]; 100 nM) [%] | cell viability (U2OS [4]; 1000 nM) [%] | cell viability (U2OS [4]; 10000 nM) [%] | relative viability EC50 (Vero E6 [5]) [µM] | relative viability EC50 (Calu-3 [6]) [µM] | relative viability EC50 (HepG2 [7]) [µM] | relative viability EC50 (U2OS [8]) [µM] | drug sensitivity score (Vero E6 [9]) | drug sensitivity score (Calu-3 [10]) | drug sensitivity score (HepG2 [11]) | drug sensitivity score (U2OS [12]) | cell viability (Caco-2 [13]; 1 nM) [%] | cell viability (Caco-2 [13]; 10 nM) [%] | cell viability (Caco-2 [13]; 100 nM) [%] | cell viability (Caco-2 [13]; 1000 nM) [%] | cell viability (Caco-2 [13]; 10000 nM) [%] | drug sensitivity score (Caco-2 [14]) | relative viability EC50 (Caco-2 [15]) [µM]
CC(C)(C)NC(=O)[C@@H]1CN(Cc2cccnc2)CCN1C[C@@H](O)C[C@@H](Cc1ccccc1)C(=O)N[C@H]1c2ccccc2C[C@H]1O [indinavir] | 117 | 78 | 97.6 | 104 | 89.9 | 97 | 107 | 98.4 | 102 | 97.9 | 99.4 | 88.7 | 109 | 93.3 | 79.8 | 98.4 | 98.2 | 92.5 | 103 | 93.5 | > 10 | > 10 | > 10 | > 10 | 0 | 0 | 1.4 | 0 | – | – | – | – | – | – | –
CCOc1cc(C(C)(C)C)ccc1C1=N[C@@](C)(c2ccc(Cl)cc2)[C@@](C)(c2ccc(Cl)cc2)N1C(=O)N1CCN(CCCS(C)(=O)=O)CC1 [RG7112] | 106 | 107 | 99.3 | 78.1 | 28.8 | 98 | 94.6 | 101 | 89 | 77.5 | 95.1 | 102 | 86.3 | 35.2 | 20.6 | 97.6 | 98.1 | 96.9 | 80.5 | 44.7 | 1.38 | > 10 | 0.327 | 1.34 | 7.1 | 2 | 13.7 | 5.5 | 101 | 95.9 | 104 | 94.5 | 56.6 | 3.1 | –
COc1ccccc1OC(=O)c1ccccc1OC(C)=O [guacetisal] | 101 | 105 | 101 | 102 | 98.9 | 105 | 90.9 | 108 | 102 | 97.4 | 97.1 | 115 | 104 | 104 | 88.4 | 97.3 | 96.8 | 99.2 | 104 | 99 | > 10 | > 10 | > 10 | > 10 | 0 | 0 | 0 | 0 | – | – | – | – | – | – | –
Cc1nc(NC(=O)N2CCC[C@H]2C(N)=O)sc1-c1ccnc(C(C)(C)C(F)(F)F)c1 [alpelisib] | 104 | 104 | 98.4 | 94.7 | 80.3 | 87.4 | 93.8 | 88.4 | 60.8 | 25.7 | 102 | 99.7 | 89.6 | 71 | 60.1 | 102 | 93.3 | 96.8 | 89.9 | 73.7 | > 10 | 0.743 | – | – | 1.2 | 9.2 | 6.1 | 1.8 | 107 | 102 | 89.8 | 91.5 | 52.3 | 3.9 | –
Cc1c(C(=O)NCCCO)cnn1-c1nc(-c2cccc(C(F)(F)F)c2)cs1 | 98.1 | 95.9 | 102 | 97.7 | 90.3 | 107 | 102 | 112 | 104 | 94.3 | 99.3 | 91.1 | 96 | 106 | 52.9 | 101 | 103 | 93.3 | 98.1 | 83.9 | > 10 | > 10 | – | > 10 | 0 | 0 | 2.1 | 0.5 | 93.5 | 91.4 | 96.1 | 102 | 67.1 | 1.4 | –
O=C1N=C(NCc2cccs2)S/C1=C\c1ccc2ncccc2c1 [Ro-3306] | 97 | 97.4 | 98.5 | 93.8 | 80.9 | 101 | 113 | 94 | 103 | 104 | 93.2 | 77.7 | 90.2 | 62.2 | 51 | 97.9 | 98.5 | 97.1 | 98.3 | 81.1 | > 10 | > 10 | – | > 10 | 1.1 | 0 | 9.2 | 0.7 | 89.1 | 105 | 97.2 | 100 | 74.2 | 1 | –
COc1cc2ncnc(Nc3ccc(Cl)cc3F)c2cc1OC | 100 | 99.2 | 87.7 | 66.8 | 48.6 | 96.2 | 103 | 90.2 | 61.1 | 22.6 | 99.1 | 107 | 89.4 | 109 | 87.1 | 97.3 | 98.5 | 99.4 | 96.3 | 84.1 | 0.434 | 0.903 | > 10 | > 10 | 7.4 | 9 | 0 | 0.7 | 91.1 | 91.6 | 88.6 | 81.5 | 62.4 | 4.7 | –
O=C(/C=C/C=C/c1ccc2c(c1)OCO2)N1CCCCC1 [piperine] | 108 | 102 | 109 | 92.5 | 93.2 | 92.4 | 103 | 101 | 106 | 90.1 | 93.7 | 91.8 | 86.7 | 84.6 | 95.9 | 95.1 | 97.6 | 91.2 | 102 | 97.8 | > 10 | > 10 | > 10 | > 10 | 0 | 0 | 0 | 0 | 94.4 | 106 | 96.6 | 97.4 | 70.9 | 1.6 | –
O=NN(CCCl)C(=O)NC1CCCCC1 [lomustine] | 97.9 | 99.1 | 99.6 | 92.4 | 94.6 | 87.1 | 102 | 88.9 | 104 | 96.1 | 102 | 95 | 99.2 | 104 | 98.7 | 98.5 | 97.1 | 97.5 | 102 | 94 | > 10 | > 10 | > 10 | > 10 | 0 | 0 | 0 | 0 | 89.7 | 78.5 | 101 | 93.2 | 59 | 3.2 | –
CCC(=O)NC[C@@H]1C[C@H]1c1cccc2c1CCO2 [tasimelteon] | – | – | – | – | – | 91.1 | 103 | 91.9 | 103 | 103 | 108 | 107 | 102 | 106 | 98.5 | 92.8 | 103 | 93.9 | 93.6 | 102 | – | > 10 | > 10 | > 10 | – | 0 | 0 | 0 | 97.9 | 92.1 | 90.6 | 98 | 99.4 | 0 | > 10
COc1ccncc1C(=O)NC(=O)Nc1ccc(-c2ccccc2)c(C(F)(F)F)c1 [S1P1-agonist-III] | – | – | – | – | – | 110 | 97.5 | 93.2 | 99.2 | 91.1 | 95.3 | 104 | 95.5 | 107 | 97.1 | 106 | 107 | 101 | 98.4 | 98.2 | – | > 10 | > 10 | > 10 | – | 0 | 0 | 0 | 100 | 90.6 | 95.5 | 99.1 | 87.8 | 0 | > 10
Clc1ccccc1C(c1ccccc1)(c1ccccc1)n1ccnc1 [clotrimazole] | 93.8 | 95.3 | 100 | 99.2 | 89.9 | 94.7 | 102 | 92.9 | 96.4 | 94 | 96.9 | 98 | 114 | 99.8 | 56.9 | 104 | 104 | 95.9 | 99.5 | 72 | > 10 | > 10 | – | – | 0 | 0 | 2.2 | 1.2 | 96 | 97.1 | 96.2 | 91.9 | 71 | 2.2 | –
CCOc1cc(C(=O)Nc2ccc(Cl)c(-c3nc4ccccc4[nH]3)c2)cc(OCC)c1OCC [SANT-2] | 97.4 | 93.7 | 99.4 | 95.2 | 92.6 | 103 | 111 | 97.5 | 94 | 75.7 | 102 | 94.4 | 99.6 | 90.9 | 71.5 | 94.2 | 98.8 | 98.3 | 103 | 90 | > 10 | > 10 | – | > 10 | 0 | 1.7 | 2.5 | 0 | 94.6 | 102 | 89.4 | 91.6 | 57.8 | 3.4 | –
Cc1c2oc3c(C)ccc(C(=O)N[C@@H]4C(=O)N[C@H](C(C)C)C(=O)N5CCC[C@H]5C(=O)N(C)CC(=O)N(C)[C@@H](C(C)C)C(=O)O[C@@H]4C)c3nc-2c(C(=O)N[C@@H]2C(=O)N[C@H](C(C)C)C(=O)N3CCC[C@H]3C(=O)N(C)CC(=O)N(C)[C@@H](C(C)C)C(=O)O[C@@H]2C)c(N)c1=O [dactinomycin] | 101 | 104 | 91.9 | 3.5 | 8.7 | 99.5 | 75 | 41 | 29.7 | 37.4 | 99 | 42.5 | 15.8 | 4.4 | 4.1 | 98.8 | 74.2 | 34.2 | 1.1 | 1.3 | 0.248 | 0.0187 | 0.0079 | 0.0387 | 18.7 | 22.9 | 35.8 | 27.7 | 108 | 83.7 | 54.8 | 63.4 | 57.4 | 16.4 | –
